Here are results for 32 molecules from US5342942A, “Pyrazoloquinazolone derivatives as neurotrophic agents” (Warner-Lambert Company, priority 1993, dated 1994).

Where a name gives a salt, the structure may show the parent alone. Bounds are passed on as bounds.

T1 sequence (P01138 122-241): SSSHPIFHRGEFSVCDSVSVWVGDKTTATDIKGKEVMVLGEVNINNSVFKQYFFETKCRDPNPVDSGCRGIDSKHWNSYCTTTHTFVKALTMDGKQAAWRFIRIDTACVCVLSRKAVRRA

One assay concerns the target T1, extracellular domain of the p75 receptor (Homo sapiens).
T1 construct: purchased Chiron Corporation, Emeryville, Calif; (originally); also commercially available from Austral Biologicals, Inc. (San Diego, Calif.)
Briefly: inhibition of ^125 I-NGF binding to the extracellular domain of the p75 receptor (truncated form, residues 1-222, microtiter plate). The settings on record: 2 nM ^125 I-NGF, 2 hours at room temperature; read-out: Concentration (IC50, nM): inhibition of ^125 I-NGF binding to the extracellular domain of the p75 receptor. How it is done: (§1) Assays of novel compounds are performed by measuring the compounds' ability to inhibit the binding of NGF to the NGF p75 receptor, using a truncated form (Residues 1-222, molecular weight=56 KDa) of the p75 receptor, originally obtained from Chiron Corporation, Emeryville, Calif., but also commercially available from Austral Biologicals, Inc. (San Diego, Calif.), on plastic 96-well microtiter plates (Immulon 11 Dynatech). The wells are coated with 50 μL/well of 20 μg/mL streptavidin in a […] (DPBS). The plates are then incubated at room temperature for 6 hours. The excess streptavidin is then poured out, the wells are washed with a 0.1% solution of bovine serum albumin (BSA) in DPBS. To each well is then added 50 μg/mL of a DPBS solution containing the truncated p75 receptor, which has previously been reacted with biotin by standard procedures. The plates are then incubated at room temperature for 2 hours and washed with 0.2% BSA/DPBS. To each well is added 98 μL of 2 nM ^125 I-NGF, followed by 2 μL/well of a concentration of test compound that is 50 times greater than the desired final test concentration. The plates are incubated for 2 hours at room temperature. The assay is read as the IC50, the concentration of compound that blocks 50% of the binding of ^125 I-NGF to the p75 receptor. […]
For `Cn1c2ccc(N)cc2c(=O)n2nc(C(=O)O)cc12` [Example 1, 7-Amino-4,9-dihydro-4-methyl-9-oxopyrazolo[5,1-b]-quinazoline-2-carboxylic acid], the IC50 is 1900 nM.
Same read-out and setting: the value for `Cn1c2ccc(NC(=O)c3ccccc3)cc2c(=O)n2nc(C(=O)O)cc12` [Example 3, 7-(Benzoylamino)-4,9-dihydro-4-methyl-9-oxopyrazolo-[5,1-b]quinazoline-2-carboxylic acid] was 228 nM; that for `Cn1c2ccc(NC(=O)c3cccs3)cc2c(=O)n2nc(C(=O)O)cc12` [Example 3a, 4,9-Dihydro-4-methyl-9-oxo-7-[(2-thienylcarbonyl)amino]pyrazolo[5,1-b]quinazoline-2-carboxylic acid] was 690 nM; that for `Cc1ccc(C(=O)Nc2ccc3c(c2)c(=O)n2nc(C(=O)O)cc2n3C)cc1` [Example 3b, 4,9-Dihydro-4-methyl-9-oxo-7-[(4-methylbenzoyl)amino]-pyrazolo[5,1-b]quinazoline-2-carboxylic acid] was 180 nM.
Regarding `COc1ccc(C(=O)Nc2ccc3c(c2)c(=O)n2nc(C(=O)O)cc2n3C)cc1` [Example 3c, 4,9-Dihydro-4-methyl-9-oxo-7-[(4-methoxybenzoyl)amino]-pyrazolo[5,1-b]quinazoline-2-carboxylic acid], the IC50 amounted to 10000 nM.
On to `Cn1c2ccc(NC(=O)c3ccc(Cl)cc3)cc2c(=O)n2nc(C(=O)O)cc12` [Example 3d, 7-[(4-Chlorobenzoyl)amino]-4,9-dihydro-4-methyl-9-oxopyrazolo [5,1-b]quinazoline-2-carboxylic acid], for which the IC50 was 250 nM.
In the case of `Cn1c2ccc(NC(=O)Cc3ccccc3)cc2c(=O)n2nc(C(=O)O)cc12` [Example 3e, 4,9-Dihydro-4-methyl-9-oxo-7-[(phenylacetyl)aminol]-pyrazolo[5,1-b]quinazoline-2-carboxylic acid], the IC50 stood at 568 nM.
Still for that read-out and setting: under `Cn1c2ccc(NC(=O)c3ccc(Cl)c(Cl)c3)cc2c(=O)n2nc(C(=O)O)cc12` [Example 3f, 7-[(3,4-Dichlorobenzoyl)amino]-4,9-dihydro-4-methyl-9-oxopyrazolo[5,1-b]quinazoline-2-carboxylic acid] stands 844 nM.
On the same count and under the same terms, under `Cn1c2ccc(NC(=O)Nc3ccccc3)cc2c(=O)n2nc(C(=O)O)cc12` [Example 3g] stands 3880 nM; under `Cn1c2ccc(NC(=O)CCc3ccccc3)cc2c(=O)n2nc(C(=O)O)cc12` [Example 3h, 4,9-Dihydro-4-methyl-9-oxo-7[(1-oxo-3-phenylpropyl) -amino]pyrazolo [5,1-b]quinazoline-2-carboxylic acid], 1710 nM.
Still for that read-out and setting: under `Cn1c2ccc(NC(=O)c3ccc4ccccc4c3)cc2c(=O)n2nc(C(=O)O)cc12` [Example 3i] stands 431 nM; under `Cn1c2ccc(NC(=O)c3ccc(I)cc3)cc2c(=O)n2nc(C(=O)O)cc12` [Example 3j, 4,9-Dihydro-7-[(4-iodobenzoyl)amino]-4-methyl-9-oxopyrazolo[5,1-b]quinazoline-2-carboxylic acid], 472 nM.
For the molecule `Cn1c2ccc(NC(=O)c3ccc([N+](=O)[O-])cc3)cc2c(=O)n2nc(C(=O)O)cc12` [Example 3k, 4,9-Dihydro-4-methyl-7-[(4-nitrobenzoyl)amino]-9-oxopyrazolo[5,1-b]quinazoline-2-carboxylic acid], the IC50 came to 229 nM.
Still for that read-out and setting: under `Cn1c2ccc(NC(=O)c3ccc(C(C)(C)C)cc3)cc2c(=O)n2nc(C(=O)O)cc12` [Example 3l, 7-[(4-tert-Butylbenzoyl)amino]-4,9-dihydro-4-methyl-9-oxopyrazolo[5,1-b]quinazoline-2-carboxylic acid] stands 862 nM; under `Cn1c2ccc(NC(=O)C34CC5CC(CC(C5)C3)C4)cc2c(=O)n2nc(C(=O)O)cc12` [Example 3m, 4,9-Dihydro-4-methyl-9-oxo-7-[(tricyclo[3.3.1.1^3,7]-dec-1-ylcarbonyl)amino]pyrazolo[5,1-b]quinazoline-2-carboxylic acid], 2230 nM; under `Cn1c2ccc(NC(=O)c3ccc(C(F)(F)F)cc3)cc2c(=O)n2nc(C(=O)O)cc12` [Example 3n, 4,9-Dihydro-4-methyl-9-oxo-7-[[(4-trifluoromethyl)benzoyl]amino]pyrazolo [5,1-b]quinazoline-2-carboxylic acid], 2570 nM.
Take `Cc1cccc(C(=O)Nc2ccc3c(c2)c(=O)n2nc(C(=O)O)cc2n3C)c1` [Example 3p, 4,9-Dihydro-4-methyl-7-[(3-methylbenzoyl)amino]-9-oxopyrazolo[5,1-b]quinazoline-2-carboxylic acid]: the IC50 worked out at 748 nM.
`Cn1c2ccc(NC(=O)c3ccc(-c4ccccc4)cc3)cc2c(=O)n2nc(C(=O)O)cc12` [Example 3q, 7-[[(1,1'-Biphenyl)-4-ylcarbonyl]amino]-4,9-dihydro-4-methyl-9-oxopyrazolo[5,1-b]quinazoline-2-carboxylic acid]: the IC50 was determined as 222 nM.
Still for that read-out and setting: under `Cc1ccccc1C(=O)Nc1ccc2c(c1)c(=O)n1nc(C(=O)O)cc1n2C` [Example 3r, 4,9-Dihydro-4-methyl-7-[(2-methylbenzoyl)amino]-9-oxopyrazolo[5,1-b]quinazoline-2-carboxylic acid] stands above 10000 nM.
Still for that read-out and setting: under `Cn1c2ccc(NC(=O)c3ccc(F)cc3)cc2c(=O)n2nc(C(=O)O)cc12` [Example 3s, 4,9-Dihydro-7-[(4-fluorobenzoyl)amino]-4-methyl-9-oxopyrazolo[5,1-b]quinazoline-2-carboxylic acid] stands 266 nM; under `Cn1c2ccc(NC(=O)c3ccc(C(=O)O)cc3)cc2c(=O)n2nc(C(=O)O)cc12` [Example 3t], 166 nM; under `Cc1ccc(C(=O)Nc2ccc3c(c2)c(=O)n2nc(C(=O)O)cc2n3C)cc1I` [Example 3u, 4,9-Dihydro-7-[(3-iodo-4-methylbenzoyl)amino]-4-methyl-9-oxopyrazolo[5,1-b]quinazoline-2-carboxylic acid], around 200 nM.
Still for that read-out and setting: the value for `Cn1c2ccc(NC(=O)CC(=O)O)cc2c(=O)n2nc(C(=O)O)cc12` [Example 3v, 7-[(Carboxyacetyl)amino]-4,9-dihydro-4-methyl-9-oxopyrazolo[5,1-b]quinazoline-2-carboxylic acid] was 1150 nM.
Consider `Cn1c2ccc(NC(=O)CCC(=O)O)cc2c(=O)n2nc(C(=O)O)cc12` [Example 3w, 7-[(3-Carboxy-1-oxopropyl)amino]-4,9-dihydro-4-methyl-9-oxopyrazolo[5,1-b]qruinazoline-2-carboxylic acid], for which the IC50 came to 116 nM.
In the case of `Cn1c2ccc(NC(=O)CCCC(=O)O)cc2c(=O)n2nc(C(=O)O)cc12` [Example 3x, 7-[(4-Carboxy-1-oxobutyl)amino]-4,9-dihydro-4-methyl-9-oxopyrazolo[5,1-b]quinazoline-2-carboxylic acid], the IC50 worked out at 36 nM.
`Cc1ccc(C(=O)Nc2ccc3c(c2)c(=O)n2nc(C(=O)O)cc2n3C)cc1` [Example 7, 4,9-Dihydro-4-methyl-9-oxo-7-[(methylbenzoyl)amino]-pyrazolo[5,1-b]quinazoline-2-carboxylic acid; triethanolamine salt (1:1)]: the IC50 came to 1160 nM.
Consider `O=C(O)c1ccc2c(=O)n3nc(C(=O)O)cc3[nH]c2c1` [H H CO2 H], for which the IC50 is 1100 nM.
Regarding `Cc1ccc2[nH]c3cc(C(=O)O)nn3c(=O)c2c1` [H Me H], the IC50 was found to be 12900 nM.
For `Nc1ccc2[nH]c3cc(C(=O)O)nn3c(=O)c2c1` [H NH2 H], the IC50 turned out to be 338 nM.
Still for that read-out and setting: under `CC(=O)Nc1ccc2c(c1)c(=O)n1nc(C(=O)O)cc1n2C` [Me CH3 CONH H] stands 1700 nM; under `Cn1c2ccccc2c(=O)n2nc(C(=O)O)cc12` [Me H H], 30800 nM; under `Cc1ccc2c(c1)c(=O)n1nc(C(=O)O)cc1n2C` [Me Me H], 9700 nM.

The target in the next assay is T2, extracellular domain of the p75 receptor (Homo sapiens, UniProt P01138).
T2 construct: purchased Chiron Corporation, Emeryville, Calif; (originally); also commercially available from Austral Biologicals, Inc. (San Diego, Calif.)
T2 sequence (P01138 122-241): as above
The description is as above. The following applies: FIG. 1, result in words. How it is done:
as §1
As to `Cn1c2ccc(NC(=O)c3ccccc3)cc2c(=O)n2nc(C(=O)O)cc12` [Example 3, 7-(Benzoylamino)-4,9-dihydro-4-methyl-9-oxopyrazolo-[5,1-b]quinazoline-2-carboxylic acid], the “prevention of binding of ^125 I-NGF to the extracellular domain of p75” value is reported as “prevents the binding of ^125 I-NGF to the extracellular domain of p75”.

The next assay concerns full length p75 receptor. Briefly: inhibition of ^125 I-NGF binding to full length p75 receptor expressed in CHO cells that lack trk (FIG. 2). The settings on record: CHO cells that lack trk expression. The source says:
(§2) In principle, a compound may inhibit the binding of NGF to the p75 receptor by interacting with either protein. The compounds of the present invention are studied further as exemplified here with the compound of Example 3.
Turning to `Cn1c2ccc(NC(=O)c3ccccc3)cc2c(=O)n2nc(C(=O)O)cc12` [Example 3, 7-(Benzoylamino)-4,9-dihydro-4-methyl-9-oxopyrazolo-[5,1-b]quinazoline-2-carboxylic acid], the “prevention of binding of ^125 I-NGF to full length p75 receptor” value is recorded as “completely prevents binding of ^125 I-NGF to full length p75 receptor”.

A further assay relates to PC12 cells that express both p75 and trk. Briefly: inhibition of ^125 I-NGF binding in PC12 cells that express both p75 and trk (FIG. 3). The following applies: p75 about 80% and trk about 20% of total NGF receptors.
Source text: as §2
As for `Cn1c2ccc(NC(=O)c3ccccc3)cc2c(=O)n2nc(C(=O)O)cc12` [Example 3, 7-(Benzoylamino)-4,9-dihydro-4-methyl-9-oxopyrazolo-[5,1-b]quinazoline-2-carboxylic acid], the “block of ^125 I-NGF binding in PC12 cells” value is listed as “about 80%”.

Another assay relates to p75. Briefly: inhibition of crosslinking of ^125 I-NGF to p75 (FIG. 4). The class given is binding.
Settings: not given
Source text: as §2
Regarding `Cn1c2ccc(NC(=O)c3ccccc3)cc2c(=O)n2nc(C(=O)O)cc12` [Example 3, 7-(Benzoylamino)-4,9-dihydro-4-methyl-9-oxopyrazolo-[5,1-b]quinazoline-2-carboxylic acid], the “inhibition of crosslinking of ^125 I-NGF to p75” value is given as “can inhibit the crosslinking of ^125 I-NGF to p75”.

The subject of the next assay is NGF receptors. Kind of assay: direct binding to NGF receptors with radioiodinated derivative of Compound 3 (FIG. 5). The following applies: utilizing a radioiodinated derivative of Compound 3 (corresponding to Example 3j).
Source text: as §2
`Cn1c2ccc(NC(=O)c3ccccc3)cc2c(=O)n2nc(C(=O)O)cc12` [Example 3, 7-(Benzoylamino)-4,9-dihydro-4-methyl-9-oxopyrazolo-[5,1-b]quinazoline-2-carboxylic acid]: the “direct binding to NGF receptors” value is recorded as “does not bind to NGF receptors directly”.

A further assay concerns NGF. Briefly: interaction with NGF bound to a sepharose support (FIG. 6). The class given is binding.
Settings: not given
Source text: as §2
Take `Cn1c2ccc(NC(=O)c3ccccc3)cc2c(=O)n2nc(C(=O)O)cc12` [Example 3, 7-(Benzoylamino)-4,9-dihydro-4-methyl-9-oxopyrazolo-[5,1-b]quinazoline-2-carboxylic acid]: the “specific interaction with NGF” value was “specific interaction between Compound 3 and NGF”.
